This note sets out measurements from publication PMC9105384, “Ethyl Gallate Dual-Targeting PTPN6 and PPARγ Shows Anti-Diabetic and Anti-Obese Effects” (International Journal of Molecular Sciences, 2022).

The target in assay [1] is T1, PTPN6 (Homo sapiens, UniProt P29350). Put plainly: DiFMUP phosphatase screen, single dose […] (% inhibition, hit threshold […]). In kind it is biochemical. As to conditions: read-out: % inhibition at 20 μM.
Assay [2] addresses T1, PTPN6. Put plainly: DiFMUP fluorescence phosphatase assay; Dixon and Lineweaver-Burk plots (IC50 […]). In kind it is biochemical.
A further assay concerns the target T2, PTPN1 (Homo sapiens, UniProt P18031).
T2 sequence (P18031 1-435): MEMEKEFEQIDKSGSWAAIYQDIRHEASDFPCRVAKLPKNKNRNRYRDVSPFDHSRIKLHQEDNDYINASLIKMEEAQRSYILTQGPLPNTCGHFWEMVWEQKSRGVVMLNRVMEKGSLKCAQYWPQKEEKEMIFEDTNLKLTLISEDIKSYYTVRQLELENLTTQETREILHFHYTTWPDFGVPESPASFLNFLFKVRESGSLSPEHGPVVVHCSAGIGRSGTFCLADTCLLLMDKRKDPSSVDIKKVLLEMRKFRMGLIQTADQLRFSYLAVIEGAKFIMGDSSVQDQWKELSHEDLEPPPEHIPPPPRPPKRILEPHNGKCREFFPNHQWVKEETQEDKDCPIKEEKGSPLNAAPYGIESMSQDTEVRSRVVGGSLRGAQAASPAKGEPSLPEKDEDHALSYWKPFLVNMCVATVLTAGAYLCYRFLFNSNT
Also noted: DiFMUP hydrolysis by purified PTPs, fluorescence Ex355/Em460, initial rates over 10 min; Michaelis-Menten and Lineweaver-Burk Km. As to conditions: optimized pH for each PTP; substrate. As for the experimental part:
(§1) The enzymatic activity of each PTP was evaluated using 6,8-difluoro-4-methylumbelliferyl phosphate (DiFMUP) as the surrogate substrate. To reach within the range of the initial rate (v0) during the measurement for 10 min, the pH and concentration of each PTP were optimized and are listed in Table S3. To determine the Km values, each PTP with optimized concentration was added to the reaction buffer (20 mM Bis-Tris at pH 6.0 or Tris at pH 7.0 and 8.0, 150 mM NaCl, 2.5 mM dithiothreitol (DTT), 0.01% Triton X-100) containing various concentrations of DiFMUP to obtain a final volume of 100 μL in a 96-well plate. Fluorescence intensities were measured once every minute for a complete 10 min duration using a Victor™ X4 Multilabel Plate Reader (Perkin Elmer, Waltham, MA, USA) at excitation/emission = 355 nm/460 nm. The initial rates of the reaction were determined using a previously described procedure for calculating the amount of product formation. To screen a library of 1033 natural products (Chengdu Biopurify Phytochemicals Ltd., Chengdu, China) against 20 PTPs, each PTP with an optimized concentration was added to the reaction buffer with an optimized pH containing DiFMUP (2 × Km for each PTP) after adding each compound (20 μM). […] The Hill coefficient (nH), the degree of cooperativity, was calculated according to a previously published method. […]

Another assay concerns the target T3, PTPRJ (Homo sapiens, UniProt Q12913).
T3 sequence (Q12913 1-1337): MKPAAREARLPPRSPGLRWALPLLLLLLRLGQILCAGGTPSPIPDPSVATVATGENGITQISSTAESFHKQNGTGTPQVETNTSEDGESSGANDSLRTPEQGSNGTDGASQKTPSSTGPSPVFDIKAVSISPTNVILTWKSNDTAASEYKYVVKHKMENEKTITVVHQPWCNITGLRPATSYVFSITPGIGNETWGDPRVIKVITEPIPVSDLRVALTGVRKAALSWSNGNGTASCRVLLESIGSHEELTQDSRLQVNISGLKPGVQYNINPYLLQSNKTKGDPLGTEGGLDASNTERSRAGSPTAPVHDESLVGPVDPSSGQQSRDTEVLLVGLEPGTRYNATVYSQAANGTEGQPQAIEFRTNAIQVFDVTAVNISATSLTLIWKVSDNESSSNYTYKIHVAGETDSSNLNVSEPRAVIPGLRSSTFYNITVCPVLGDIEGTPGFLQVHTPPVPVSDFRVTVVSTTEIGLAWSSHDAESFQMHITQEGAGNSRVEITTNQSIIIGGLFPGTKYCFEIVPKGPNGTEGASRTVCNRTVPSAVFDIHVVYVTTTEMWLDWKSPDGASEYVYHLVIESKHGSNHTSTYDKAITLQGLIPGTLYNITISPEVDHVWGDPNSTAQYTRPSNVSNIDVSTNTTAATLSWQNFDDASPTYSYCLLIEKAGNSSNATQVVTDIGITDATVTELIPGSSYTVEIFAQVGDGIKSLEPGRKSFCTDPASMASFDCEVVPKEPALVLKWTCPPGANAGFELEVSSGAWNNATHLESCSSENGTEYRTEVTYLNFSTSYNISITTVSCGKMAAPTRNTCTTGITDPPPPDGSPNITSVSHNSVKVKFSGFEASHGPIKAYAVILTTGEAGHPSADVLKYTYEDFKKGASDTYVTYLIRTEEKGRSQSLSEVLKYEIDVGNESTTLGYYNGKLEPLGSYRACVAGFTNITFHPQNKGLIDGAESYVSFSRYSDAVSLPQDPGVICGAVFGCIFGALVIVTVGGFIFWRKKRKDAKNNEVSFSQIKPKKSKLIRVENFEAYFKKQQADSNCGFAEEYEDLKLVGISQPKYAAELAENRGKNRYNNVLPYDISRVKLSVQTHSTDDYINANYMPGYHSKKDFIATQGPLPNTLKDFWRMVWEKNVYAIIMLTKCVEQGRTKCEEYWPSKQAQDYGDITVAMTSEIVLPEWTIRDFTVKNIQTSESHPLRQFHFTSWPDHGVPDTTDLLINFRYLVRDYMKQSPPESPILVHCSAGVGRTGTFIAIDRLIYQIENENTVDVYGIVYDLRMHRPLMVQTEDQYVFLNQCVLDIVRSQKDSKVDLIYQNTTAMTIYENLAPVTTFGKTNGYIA
Further details: DiFMUP hydrolysis by purified PTPs, fluorescence Ex355/Em460, initial rates over 10 min; Michaelis-Menten and Lineweaver-Burk Km. Particulars: optimized pH for each PTP; substrate. Here is the method: as §1

T1 sequence (P29350 whole entry): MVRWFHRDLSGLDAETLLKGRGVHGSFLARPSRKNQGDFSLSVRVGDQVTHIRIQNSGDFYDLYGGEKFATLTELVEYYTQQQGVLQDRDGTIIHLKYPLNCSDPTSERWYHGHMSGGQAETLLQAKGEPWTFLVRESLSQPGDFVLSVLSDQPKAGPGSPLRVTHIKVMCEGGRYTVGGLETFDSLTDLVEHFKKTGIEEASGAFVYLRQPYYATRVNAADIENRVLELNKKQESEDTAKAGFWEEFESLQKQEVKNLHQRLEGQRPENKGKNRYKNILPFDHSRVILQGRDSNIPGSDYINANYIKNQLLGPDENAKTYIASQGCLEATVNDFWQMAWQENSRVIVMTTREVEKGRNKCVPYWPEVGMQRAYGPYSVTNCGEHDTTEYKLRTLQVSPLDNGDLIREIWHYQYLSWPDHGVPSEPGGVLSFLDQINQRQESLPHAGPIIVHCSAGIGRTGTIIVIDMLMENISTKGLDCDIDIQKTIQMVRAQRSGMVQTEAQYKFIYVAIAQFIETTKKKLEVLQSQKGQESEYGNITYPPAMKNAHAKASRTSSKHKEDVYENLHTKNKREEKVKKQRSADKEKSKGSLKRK

For the compound `COc1ccc(-c2oc3c(CC=C(C)C)c(O[C@@H]4O[C@H](CO)[C@@H](O)[C@H](O)[C@H]4O)cc(O)c3c(=O)c2O)cc1` [compound 335, icariside I], the inhibition at 20 µM on PTPN6 [1] was above 60%.

With `CCOC(=O)c1cc(O)c(O)c(O)c1` [compound 271, ethyl gallate], on PTPN6 [2], the affinity corresponds to a Ki of 3.4 µM.

With `O=C1C=CC(=O)c2c(O)cccc21` [compound 362, juglone], the inhibition at 20 µM on PTPN6 [1] was above 60%.

With `C[C@@H]1O[C@@H](Oc2c(-c3cc(O)c(O)c(O)c3)oc3cc(O)cc(O)c3c2=O)[C@H](O)[C@H](O)[C@H]1O` [compound 429, myricetrin], the inhibition at 20 µM on PTPN6 [1] was above 60%.

Consider `Cc1cc(=O)oc2c(F)c(OP(=O)(O)O)c(F)cc12` [6,8-difluoro-4-methylumbelliferyl phosphate], for which the Km at PTPN1 was 21.6 µM; on PTPRJ, 66.4 µM.

For `CCCCCCCCCCCCCCCCC(C(=O)O)C(O)(CC(=O)O)C(=O)O` (stereo not shown) [compound 891, agaric acid], the inhibition at 20 µM at PTPN6 [1] was above 60%.
